“Also recorded” adds a separate entry of the source.
B1: NP244: engineered DLL3 construct, DLL3 residues 27-492 with EGFR signal peptide/transmembrane helix; SEQ ID NO: 34 (protein)
chain: MRPSGTAGAALLALLAALCPASRAAGVFELQIHSFGPGPGPGAPRSPCSARLPCRLFFRVCLKPGLSEEAAESPCALGAALSARGPVYTEQPGAPAPDLPLPDGLLQVPFRDAWPGTFSFIIETWREELGDQIGGPAWSLLARVAGRRRLAAGGPWARDIQRAGAWELRFSYRARCEPPAVGTACTRLCRPRSAPSRCGPGLRPCAPLEDECEAPLVCRAGCSPEHGFCEQPGECRCLEGWTGPLCTVPVSTSSCLSPRGPSSATTGCLVPGPGPCDGNPCANGGSCSETPRSFECTCPRGFYGLRCEVSGVTCADGPCFNGGLCVGGADPDSAYICHCPPGFQGSNCEKRVDRCSLQPCRNGGLCLDLGHALRCRCRAGFAGPRCEHDLDDCAGRACANGGTCVEGGGAHRCSCALGFGGRDCRERADPCAARPCAHGGRCYAHFSGLVCACAPGYMGARCEFPVHPDGASALPAAPPGLRPGDPQRYLSIATGMVGALLLLLVVALGIGLFMRRRHIVRKHMGGGSGGGSAYPYDVPDYAAYPYDVPDYA
B2: NP245: engineered DLL3 construct, DLL3 residues 27-492 with PD-L1 signal peptide/transmembrane helix; SEQ ID NO: 35 (protein)
chain: MRIFAVFIFMTYWHLLNAAGVFELQIHSFGPGPGPGAPRSPCSARLPCRLFFRVCLKPGLSEEAAESPCALGAALSARGPVYTEQPGAPAPDLPLPDGLLQVPFRDAWPGTFSFIIETWREELGDQIGGPAWSLLARVAGRRRLAAGGPWARDIQRAGAWELRFSYRARCEPPAVGTACTRLCRPRSAPSRCGPGLRPCAPLEDECEAPLVCRAGCSPEHGFCEQPGECRCLEGWTGPLCTVPVSTSSCLSPRGPSSATTGCLVPGPGPCDGNPCANGGSCSETPRSFECTCPRGFYGLRCEVSGVTCADGPCFNGGLCVGGADPDSAYICHCPPGFQGSNCEKRVDRCSLQPCRNGGLCLDLGHALRCRCRAGFAGPRCEHDLDDCAGRACANGGTCVEGGGAHRCSCALGFGGRDCRERADPCAARPCAHGGRCYAHFSGLVCACAPGYMGARCEFPVHPDGASALPAAPPGLRPGDPQRYLLPLAHPPNERTHLVILGAILLCLGVALTFIFRHMGGGSGGGSAYPYDVPDYAAYPYDVPDYA
B3: NP249: engineered DLL3 construct, DLL3 residues 27-492 with CD73 SP/GPI-anchor motif; SEQ ID NO: 39, 46 (protein)
chain: MCPRAARAPATLLLALGAVLWPAAGAAGVFELQIHSFGPGPGPGAPRSPCSARLPCRLFFRVCLKPGLSEEAAESPCALGAALSARGPVYTEQPGAPAPDLPLPDGLLQVPFRDAWPGTFSFIIETWREELGDQIGGPAWSLLARVAGRRRLAAGGPWARDIQRAGAWELRFSYRARCEPPAVGTACTRLCRPRSAPSRCGPGLRPCAPLEDECEAPLVCRAGCSPEHGFCEQPGECRCLEGWTGPLCTVPVSTSSCLSPRGPSSATTGCLVPGPGPCDGNPCANGGSCSETPRSFECTCPRGFYGLRCEVSGVTCADGPCFNGGLCVGGADPDSAYICHCPPGFQGSNCEKRVDRCSLQPCRNGGLCLDLGHALRCRCRAGFAGPRCEHDLDDCAGRACANGGTCVEGGGAHRCSCALGFGGRDCRERADPCAARPCAHGGRCYAHFSGLVCACAPGYMGARCEFPVHPDGASALPAAPPGLRPGDPQRYLGGSSTGSHCHGSFSLIFLSLWAVIFVLYQ

Tests used:
Assay type in all cases: cell-based, human
[1] = system: H1299 cells; assay: number of copies of anti-DLL3 antibody bound to DLL3 on the cell surface (quantification bead standard curve)
Experimental: Next, a physical number of copies of anti-DLL3 antibody bound to DLL3 expressed on the cell surface was assessed. H1299 cells were seeded into 96 well plate. 24 hours after seeding, H1299 cells were transfected with nanoplasmid vectors comprising NP116 (wild-type control), NP247 (with a single DLL3 epitope in the CD8 scaffold), or NP298 (with two DLL3 epitopes in the CD8 scaffold) via lipofectamine according to the manufacture's protocols. H1299 cells were then stained with fluorescently labeled anti-DLL3 antibodies for FACS analysis. Cells and commercially available beads for epitope quantification were then stained with an anti-DLL3 secondary antibody conjugated to Alexa Fluor® 647 (AF647). H1299 cells were subsequently analyzed on a BD Biosciences FACSAria IIu (FIGS. 10A-10C). The number of epitopes were calculated by comparing the cell's expression to the quantification bead standard curve (FIGS. 10B-10C).
Each of NP247 and NP298 constructs and wild-type DLL3 construct (NP116) was separately introduced to H1299 cells by transfection to analyze the expression of engineered DLL3. […] H1299 cells stably expressing wild-type or engineered DLL3 and commercially available beads for epitope quantification were then stained with an anti-DLL3 secondary antibody conjugated to Alexa Fluor® 647 (AF647). H1299 cells were subsequently analyzed on a BD Biosciences FACSAria IIu. […]

[2] = system: H1299 cells; assay: in vitro cell killing assay with anti-DLL3-PBD (Example 4); conditions: H1299 cells transfected with construct, treated with anti-DLL3-PBD; compared to NP116 or NP127; FIG. 8D
Experimental: Next, in vitro cell killing assay was performed to determine the ability of anti-DLL3 antibodies conjugated with a cytotoxic payload (anti-DLL3-PBD) to induce cytotoxicity. The anti-DLL3-PBD was introduced to H1299 cells transfected with NP247 (G1 in FIG. 8A), NP249 (D1 in FIG. 8A), NP116 (wild-type control), or NP127 (wild-type control).

[3] = system: H1299 cells; assay: cell killing assay, CellTiter Glo 2.0 (Example 7); conditions: treated with anti-DLL3-PBD, 72 hours, compared to NP116, FIG. 13B
Experimental: Next, H1299 cells stably expressing WT or engineered DLL3 were seeded 5,000 cells/well in 96 well plates. 24 hours after seeding, H1299 cells were treated with a titration of either an unconjugated anti-DLL3 antibody or an anti-DLL3 antibody conjugated to a PBD toxin (anti-DLL3-PBD). 72 hours after antibody treatment, cell viability was assessed using the CellTiter Glo 2.0 assay kit and analyzed on a Promega GloMax Navigator.

[4] = system: H1299 cells; assay: FACS detection of engineered DLL3 on the surface of transfected H1299 cells (Example 4); conditions: for percent positive (DLL3-positive cells) / expression level of DLL3 on the cell surface: H1299 cells transfected with construct; for expression level of DLL3 on the cell surface: fluorescently labeled anti-DLL3 antibody, FACS, compared to wild-type DLL3 (NP116, NP127)
Text: Each of the six engineered DLL3 constructs ([…]) and two different wild-type DLL3 constructs (NP116 and NP127) was separately introduced to human non-small cell lung carcinoma, H1299 cells (also known as NCI-H1299 or CRL-5803) by transfection to analyze the expression of engineered DLL3. H1299 cells were then stained with fluorescently labeled anti-DLL3 antibodies and analyzed by fluorescence-activated cell sorting (FACS) to detect DLL3 expression. Panels A2-G2 in FIG. 8B, and NP116, NP127, NP244-NP249, and NP268 in FIG. 8C show the amount of DLL3 expressed on the cell surface corresponding to panels A1-G1 in FIG. 8A. […] Specifically, NP249 and NP247 increased percent positive to ˜80% and ˜94%, respectively (FIG. 8C).

| Molecule | increase in copy number of anti-DLL3 antibodies compared to cells expressing NP116 ([1]; Example 5, H1299 cells transfected with nanoplasmid vectors, FIG. 10C) [fold] | increase in copy number of anti-DLL3 antibodies compared to cells expressing NP116 ([1]; Example 7, FIG. 13A) [fold] | loss of viability of cells expressing the construct [2] | loss of viability / susceptibility to cell death of cells expressing the construct [3] | percent positive (DLL3-positive cells) ([4]; FIG. 8C) [%] | expression level of DLL3 on the cell surface [4] | mean fluorescence intensity ([4]; compared to DLL3 wild-type or the DLL3 stable cell line, FIG. 8C) |
| --- | --- | --- | --- | --- | --- | --- | --- |
| NP247: engineered DLL3 construct, DLL3 residues 27-254, CD8a hinge, CD28 transmembrane helix; SEQ ID NO: 37 | 13 | 21 | substantial loss in viability; also recorded: substantial loss of viability | may be more susceptible to cell death; also recorded: substantial loss of viability | ~94 | increased the expression level of DLL3 | significantly higher mean fluorescence intensity |
| NP246: engineered DLL3 construct, DLL3 residues 27-492, CD8a SP/CD28 transmembrane helix; SEQ ID NO: 36 | – | – | – | – | – | increased the expression level of DLL3 | – |
| B1 | – | – | – | – | – | did not increase the expression level of DLL3 | – |
| B2 | – | – | – | – | – | increased the expression level of DLL3 | – |
| B3 | – | – | substantial loss in viability; also recorded: substantial loss of viability | – | ~80 | increased the expression level of DLL3 | – |

— patent US20250144249A1, “METHODS USING SURFACE-EXPRESSIBLE ACTIVATABLE EPITOPES TO LOCALIZE AND/OR TREAT DISEASED CELLS” (EARLI Inc., priority 2022, published 2025)
